What was measured:
Assay in all cases: relative viability (nuclei count vs DMSO), 5 days (fraction); higher = more cells survive
VX-702 + Bortezomib = compound: NC(=O)c1ccc(N(C(N)=O)c2c(F)cccc2F)nc1-c1ccc(F)cc1F [VX-702] + CC(C)C[C@H](NC(=O)[C@H](Cc1ccccc1)NC(=O)c1cnccn1)B(O)O [Bortezomib] (partner 0.002 µM)
Summary of the method: (§1)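 Lung cancer cell lines were seeded in 1536-well plates and dosed by pin tool the next day, with either a single drug or a fixed anchor-drug dose combined with five library-drug doses (not always all listed) spaced in √10 steps. Five days later, one step fixed the cells and stained their nuclei (final 0.05% Triton X-100, 1% formaldehyde, 1 ug/ml Hoechst), and nuclei were counted on 4× images. Relative viability is the nuclei count in treated wells divided by the count in vehicle wells, and each value is the median of duplicate plates.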

Dabrafenib + Alpelisib = compound: CC(C)(C)c1nc(-c2cccc(NS(=O)(=O)c3c(F)cccc3F)c2F)c(-c2ccnc(N)n2)s1 [Dabrafenib] + Cc1nc(NC(=O)N2CCC[C@H]2C(N)=O)sc1-c1ccnc(C(C)(C)C(F)(F)F)c1 [Alpelisib] (partner 2 µM)
Summary of the method: as §1

Dabrafenib + Olaparib = compound: CC(C)(C)c1nc(-c2cccc(NS(=O)(=O)c3c(F)cccc3F)c2F)c(-c2ccnc(N)n2)s1 [Dabrafenib] + O=C(c1cc(Cc2n[nH]c(=O)c3ccccc23)ccc1F)N1CCN(C(=O)C2CC2)CC1 [Olaparib] (partner 8 µM)
Summary of the method: as §1

VX-702 + Linsitinib = compound: NC(=O)c1ccc(N(C(N)=O)c2c(F)cccc2F)nc1-c1ccc(F)cc1F [VX-702] + C[C@]1(O)C[C@@H](c2nc(-c3ccc4ccc(-c5ccccc5)nc4c3)c3c(N)nccn32)C1 [Linsitinib] (partner 1 µM)
Summary of the method: as §1

| Cell Line | relative viability (VX-702 + Bortezomib; first compound 0.02 µM) | relative viability (VX-702 + Bortezomib; first compound 0.2 µM) | relative viability (VX-702 + Bortezomib; first compound 0.6325 µM) | relative viability (VX-702 + Bortezomib; first compound 2 µM) | relative viability (Dabrafenib + Alpelisib; first compound 0.009487 µM) | relative viability (Dabrafenib + Alpelisib; first compound 0.03 µM) | relative viability (Dabrafenib + Alpelisib; first compound 0.09487 µM) | relative viability (Dabrafenib + Alpelisib; first compound 0.3 µM) | relative viability (Dabrafenib + Olaparib; first compound 0.009487 µM) | relative viability (Dabrafenib + Olaparib; first compound 0.03 µM) | relative viability (Dabrafenib + Olaparib; first compound 0.09487 µM) | relative viability (Dabrafenib + Olaparib; first compound 0.3 µM) | relative viability (VX-702 + Linsitinib; first compound 0.02 µM) | relative viability (VX-702 + Linsitinib; first compound 0.2 µM) | relative viability (VX-702 + Linsitinib; first compound 0.6325 µM) | relative viability (VX-702 + Linsitinib; first compound 2 µM) | relative viability (Dabrafenib + Alpelisib; first compound 0.003 µM) | relative viability (Dabrafenib + Olaparib; first compound 0.003 µM) |
| --- | --- | --- | --- | --- | --- | --- | --- | --- | --- | --- | --- | --- | --- | --- | --- | --- | --- | --- |
| NCI-H441 | 0.641 | 0.463 | 0.492 | 0.575 | 0.915 | 0.817 | 0.677 | 0.692 | 0.609 | 0.609 | 0.334 | 0.588 | 0.699 | 0.429 | 0.369 | 0.747 |  |  |
| NCI-H460 | 1.14 | 1.15 | 1.22 | 1.17 | 0.599 | 0.394 | 0.567 | 0.592 | 0.398 | 0.397 | 0.362 | 0.385 | 0.879 | 0.837 | 0.825 | 0.814 | 0.508 | 0.493 |
| NCI-H520 | 0.4 | 0.663 | 0.479 | 0.677 | 0.881 | 0.708 | 0.881 | 0.914 | 0.317 | 0.305 | 0.271 | 0.354 | 0.962 | 0.936 | 0.915 | 0.925 | 0.934 | 0.312 |
| NCI-H596 | 1.2 | 0.963 | 0.962 | 1.25 | 0.578 | 0.427 | 0.534 | 0.566 | 0.68 | 0.675 | 0.651 | 0.752 | 0.996 | 1.1 | 1.02 | 1.1 | 0.408 |  |
| NCI-H647 | 1.14 | 0.84 | 1.25 | 1.41 | 1.09 | 1.12 | 0.945 | 1.03 | 0.558 | 0.449 | 0.557 | 0.607 | 1.21 | 0.941 | 1.18 | 1.4 |  | 0.661 |
| NCI-H650 | 0.802 |  | 1.05 | 1.07 | 1.09 | 0.953 | 0.906 | 0.706 | 0.381 | 0.341 | 0.189 | 0.287 | 0.927 |  | 1.07 | 1.12 |  |  |
| NCI-H661 | 0.731 | 0.731 | 1.11 | 1.21 | 0.707 | 0.382 | 0.432 | 0.687 | 0.685 | 0.746 | 0.75 | 0.773 | 0.523 | 0.587 | 0.5 | 0.826 | 0.259 | 0.739 |
| NCI-H727 | 0.657 | 0.743 | 0.939 | 0.976 | 0.757 | 0.519 | 0.647 | 0.638 | 0.656 |  | 0.612 | 0.796 | 0.516 | 0.271 | 0.259 | 0.306 |  | 0.554 |
| NCI-H838 | 0.857 | 0.94 | 0.796 | 0.937 | 1.07 | 0.861 | 0.93 | 1.15 | 0.792 | 0.735 | 0.68 | 0.873 | 1.01 | 0.959 | 0.977 | 1.2 | 1.01 | 0.772 |

Source: the supplement of paper PMC10307832
